Experimental data from patent US20030134859A1 (SANKYO COMPANY, LIMITED, priority 2000, published 2003).
Counter-ions that a name gives are not always drawn.

Legend:
[1] = system: Mouse preadipocyte strain 3T3-L1; assay: Inhibition of differentiation as an indication of acetic acid uptake; assay type: cell-based; conditions: Mus musculus, 3T3-L1, 0.1 μM test substance, control (0.01% dimethylsulfoxide) = 100%, read-out: Rate of Uptake (%) of [2-14C] acetic acid
Procedure: As the basal medium, Dulbecco's modified Eagle's (DEM) medium (NISSUI PHARMACEUTICAL CO., LTD) was used. […] All culturing in the present Test Example was carried out in a CO2 incubator at 37° C. and 10% CO2 concentration.
The successively cultured 3T3-L1 cells were inoculated in a Biocoat Collagen I 96-well white/clear plate (Becton Dickinson and Co.) at a concentration of 4,900 cells/well, and were cultured in the basal medium containing added 10% (v/v) inactivated bovine fetal serum (FBS) for 10 days.
The medium was replaced with a differentiation-inducing medium in which inactivated FBS (final concentration: 5%), insulin (Sigma-Aldrich Japan K. K., final concentration: 10 μg/mL), isobutyl methyl xanthine (Aldrich K. K., final concentration: 0.5 mM) and dexamethazone (final concentration: 1 μM) were added so as to be at the final concentrations indicated in the parentheses. The cells were divided in the following 2 groups and were cultured for 4 days; 1) in the presence of 0.01% (v/v) dimethylsulfoxide, and 2) in the presence of 0.01% (v/v) dimethylsulfoxide in which was dissolved 1 mM of the test substance (final concentration of 0.1 μM). Then, the medium was further replaced with a maintenance medium in which inactivated […] and insulin were added to the base medium so as to be at final concentrations of 5% and 100 ng/mL, respectively, and the cells were cultured for 2 days.
The inhibitory activity of the test compound against cell differentiation was assayed by using uptake of [2-^14C] acetic acid into the cultured cells as an indicator. […] Then the cells were further incubated with the newly prepared medium for 1 hr. After washing the well with PBS (−), the cells were dried. To these wells, 100 μL/well of a scintillation cocktail (Hewlett-Packard Co., MICROSCINT-20 PACKARD) were added and their radioactivities were determined with a Packard TopCont microplate Scintillation Counter (Hewlett-Packard Co., PACKARD) and the uptake level of [2-^14C] acetic acid into the cultured cell was calculated.
On the basis of the calculated uptake level of [2-^14C] acetic acid into the cultured cells, the relative uptake level of [2-^14C] acetic acid in the group treated with the test compound was calculated against the uptake level of [2-^14C] acetic acid in the presence of 0.01% (v/v) dimethylsulfoxide solution described in 1) (100%).
Value=Uptake Level (cpm) of [2-^14C] Acetic Acid in the Presence of the Test Substance
Control=Uptake Level (cpm) of [2-^14C] Acetic Acid in the Control Group (0.01% dimethylsulfoxide)
Uptake Rate (%) of [2-^14C] Acetic Acid=100×[Value]/[Control]

Rat white adipocytes = assay: Stimulation of differentiation of the adipocytes (Oil Red O); assay type: cell-based; conditions: 100 nM test compound, 5 days, Oil Red O ABS550, control = 100%, blank = 0%, Table 7; for activity at 0.1 µM: Rattus norvegicus, Adipocyte, 120 h, read-out: Rate of Differentiation (%)
Procedure: Rat white adipocytes contained in the white adipocyte culture kit, which was purchased from HOKUDO, were used. Mediums for proliferation and for differentiation-inducing, which were contained in the white adipocyte culture kit purchased from HOKUDO, were used.
Immediately after arrival of the purchased cells, all medium for transportation was discarded and replaced with 5 ml of proliferation medium (/25 cm^2-flask) and the cells were cultured for one day. Then, a cell suspension was prepared with proliferation medium so as to be 83,000 cells/mL, and the suspension was plated into a type I 96-well collagen-coated microplate (SUMITOMO BAKELITE CO., ltd.) so as to be 5,000 cells/well (60 μL/well). For the blank, the proliferation medium without the cells was plated into the well (blank well) of each plate.
Further, 1) in the group treated with the test compound, 3 μL/well of a solution in which the test compound (100 μM) was dissolved in DMSO solution and diluted with differentiation-inducing medium by 20 times (final concentration of the test compound: 100 nM, final concentration of DMSO: 0.1% (v/v)) were added to the well where the cells were plated. 2) In the control group, 3 μL/well of DMSO solution that was diluted with differentiation-inducing medium by 20 times (final concentration of DMSO: 0.1% (v/v)) were added to the well where the cells were plated. Further, 3) in the blank group, 3 μL/well of DMSO solution that was diluted with differentiation-inducing medium by 20 times (final concentration: 0.1% (v/v)) were added to the blank well.
After culturing for 5 days, all differentiation-inducing medium was discarded and replaced with 60 μL of 10% (v/v) of formaldehyde solution (for fixation) in each well and the cells were kept stationary for 20 min at room temperature. After this the fixative solution was discarded and replaced with 60 μL of 0.2% (v/v) Triton X (Sigma-Aldrich Japan K. K.) solution in each well and kept stationary for 5 min at the room temperature. Then all Triton X solution was discarded and replaced with 60 μL of 60% (v/v) isopropanol solution containing dissolved Oil Red 0 (Sigma-Aldrich Japan K. K.) so as to be 0.3%, which was adipose tissue staining solution, and the well was left stationary for 10 min at room temperature. After the adipose tissue staining solution was discarded, the well was washed twice with 60 μL of 60% (v/v) isopropanol solution. Then, 100 μL of the DMSO were added to each well and stirred for 5 min at room temperature. The absorbance was measured at 550 nm (ABS550) with a multi-plate reader (LabsSystems), and the stained amount by Oil Red 0 was determined. The measured level at ABS550 in the control group was defined as 100%, while the level at ABS550 in the blank group was defined as 0%. The differentiation rate (%) of the adipocytes treated with the test compound was calculated.

leptin production = assay: Enhancing activity for leptin production in adipocytes (ELISA); assay type: cell-based, rat; conditions: leptin concentration as % of control group; for Facilitating activity to produce leptin: 24 hr
How it was run: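 Leptin release, quantified by rat leptin ELISA, expressed as percent of 0.1% DMSO control after 24 h at 37 °C. Cells were floating adipocytes isolated by collagenase digestion of epididymal fat from male 6-week Wistar Imamichi rats; compound tested at 1 nM–1 µM final.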

[2] = Rattus norvegicus, Adipocyte, 24 h, read-out: Facilitating activity to produce leptin
[3] = Rattus norvegicus, Adipocyte, 24 h, 100 nm, read-out: Facilitating activity to produce leptin

`N#Cc1ccccc1NC(=O)c1cc([N+](=O)[O-])ccc1Cl` [Example 22, N-(2-Cyanophenyl)-(2-chloro-5-nitrophenyl)carboxamide] gave an activity at 0.1 µM [1] of 51.5% and an activity at 0.1 µM (Rat white adipocytes) of 127%.

`CCNc1ccc(NC(=O)c2cc([N+](=O)[O-])ccc2Cl)cc1` [Example 115, N-(4-Ethylaminophenyl)-(2-chloro-5-nitrophenyl)carboxamide mono-hydrochloride] was tested, and the activity at 0.1 µM (Rat white adipocytes) was 147%.

For `CCN(CC)c1ccc(NC(=O)c2cc([N+](=O)[O-])ccc2Cl)c(C)c1` [Example 131, N-[4-(Diethylamino)-2-methylphenyl]-(2-chloro-5-nitrophenyl)carboxamide], the activity at 0.1 µM (Rat white adipocytes) was 132%.

For `O=C(Nc1ccc(N2CCNCC2)cc1)c1cc([N+](=O)[O-])ccc1Cl` [Example 133, N-[4-(Piperazin-1-yl)phenyl]-(2-chloro-5-nitrophenyl)carboxamide], the activity at 0.1 µM (Rat white adipocytes) was 141%.

`CCCCCCNc1ccc(NC(=O)c2cc([N+](=O)[O-])ccc2Cl)cc1` [Example 137, N-(4-n-Hexylaminophenyl)-(2-chloro-5-nitrophenyl)carboxamide] gave an activity at 0.1 µM (Rat white adipocytes) of 150%.

In the case of `CC(C)(C)c1cc(C(=O)Nc2cccc(NC(=O)c3cc([N+](=O)[O-])ccc3Cl)c2)cc(C(C)(C)C)c1O` [Example 162, N-[3-[(3,5-di-tert-Butyl-4-hydroxybenzoyl)amino]phenyl]-(2-chloro-5-nitrophenyl)carboxamide], the activity at 1 µM (leptin production; [2]) is reported as 111% and the activity at 0.1 µM (Rat white adipocytes) is reported as 170%.

`CC(C)(C)OC(=O)N1CCN(C(=O)c2ccc(NC(=O)c3cc([N+](=O)[O-])ccc3Cl)cc2)CC1` [Example 166, N-[4-(4-tert-Butoxycarbonylpiperazin-1-ylcarbonyl)phenyl]-(2-chloro-5-nitrophenyl)carboxamide] gave an activity at 1 µM (leptin production; [2]) of 114%, an activity at 0.1 µM (leptin production; [3]) of 115% and an activity at 0.1 µM (Rat white adipocytes) of 115%.

With `CCOC(=O)Cc1ccc(NC(=O)c2cc([N+](=O)[O-])ccc2Cl)cc1` [Example 168, Ethyl [4-(2-chloro-5-nitrobenzoylamino)phenyl]acetate] the activity at 0.1 µM (Rat white adipocytes) was 140%.

For `Cl.NCCc1ccc(NC(=O)c2cc([N+](=O)[O-])ccc2Cl)cc1` [Example 169, N-[4-(2-Aminoethyl)phenyl]-(2-chloro-5-nitrophenyl)carboxamide Hydrochloride 0.2 Hydrate], the “Facilitating activity to produce leptin” value (leptin production; 100 nm) was 111.6% and the “Rate of Differentiation (%)” value (Rat white adipocytes) was 114.9%.

With `O=C(O)Cc1ccc(NC(=O)c2cc([N+](=O)[O-])ccc2Cl)cc1` [Example 170, [4-(2-Chloro-5-nitrobenzoylamino)phenyl]acetic Acid] the activity at 0.1 µM (leptin production; [3]) was 117% and the activity at 0.1 µM (Rat white adipocytes) was 115%.

With `CCN(CC)c1ccc(NC(=O)c2cc([N+](=O)[O-])ccc2Cl)cc1` [Example 172, N-(4-Diethylaminophenyl)-(2-chloro-5-nitrophenyl)carboxamide] the activity at 0.1 µM (Rat white adipocytes) was 120%.

`CN(C)c1ccc(NC(=O)c2cc([N+](=O)[O-])ccc2Cl)cc1` [Example 173, N-(4-Dimethylaminophenyl)-(2-chloro-5-nitrophenyl)carboxamide] was tested, and the activity at 1 µM (leptin production; [2]) was 119%, the activity at 0.001 µM (leptin production; Rattus norvegicus, Adipocyte, 24 h, 1 nm, read-out: Facilitating activity to produce leptin) was 112% and the activity at 0.1 µM (Rat white adipocytes) was 134%.

Work on `CC(=O)N1CCN(c2ccc(NC(=O)c3cc([N+](=O)[O-])ccc3Cl)cc2)CC1` [Example 183, N-[4-(4-Acetylpiperazin-1-yl)phenyl]-(2-chloro-5-nitrophenyl)carboxamide] yielded an activity at 0.1 µM (leptin production; [3]) of 112% and an activity at 0.1 µM (Rat white adipocytes) of 118%.

`O=C(Nc1ccc(S(=O)(=O)Nc2ccc(-n3ccnc3)cc2)cc1)c1cc([N+](=O)[O-])ccc1Cl` [Example 187, N-[[4-[4-(Imidazol-1-yl)phenyl]aminosulfonyl]phenyl]-(2-chloro-5-nitrophenyl)carboxamide] was tested, and the “Facilitating activity to produce leptin” value (leptin production; 10 nm) was 113.3%, the “Facilitating activity to produce leptin” value (leptin production; 100 nm) was 126.2% and the “Rate of Differentiation (%)” value (Rat white adipocytes) was 112.7%.

In the case of `Nc1ccc2nc(NC(=O)c3cc([N+](=O)[O-])ccc3Cl)sc2c1` [Example 261, N-(6-Aminobenzothiazol-2-yl]-(2-chloro-5-nitrophenyl)carboxamide], the activity at 0.1 µM (Rat white adipocytes) is reported as 129%.

In the case of `CS(=O)(=O)Nc1ccc(-c2csc(NC(=O)c3cc([N+](=O)[O-])ccc3Cl)n2)cc1` [Example 262, N-[4-(4-Methanesulfonylaminophenyl)thiazol-2-yl]-(2-chloro-5-nitrophenyl)carboxamide], the activity at 0.1 µM (Rat white adipocytes) is reported as 167%.

Work on `CC(=O)Nc1ccc(-c2csc(NC(=O)c3cc([N+](=O)[O-])ccc3Cl)n2)cc1` [Example 263, N-[4-(4-Acetylaminophenyl)thiazol-2-yl]-(2-chloro-5—nitrophenyl)carboxamide] yielded an activity at 0.1 µM (Rat white adipocytes) of 154%.

`NC(=O)N1CCN(c2ccc(NC(=O)c3cc([N+](=O)[O-])ccc3Cl)cc2)CC1` [Example 264, N-[4-[(4-Aminocarbonyl)piperazin-1-yl]phenyl]-(2-chloro-5-nitrophenyl)carboxamide] was tested, and the “Rate of Differentiation (%)” value (Rat white adipocytes) was 111.5%.

`CC(=O)Nc1cccc(-c2csc(NC(=O)c3cc([N+](=O)[O-])ccc3Cl)n2)c1` [Example 277, N-[4-(3-Acetylaminophenyl)thiazol-2-yl]-(2-chloro-5-nitrophenyl)carboxamide] gave an activity at 0.1 µM (Rat white adipocytes) of 123%.

`CC(=O)Nc1ccc2nc(NC(=O)c3cc([N+](=O)[O-])ccc3Cl)sc2c1` [Example 280, N-(6-Acetylaminobenzothiazol-2-yl)-(2-chloro-5-nitrophenyl)carboxamide] gave an activity at 0.1 µM (Rat white adipocytes) of 190%.

Work on `NC(=O)Nc1ccc2nc(NC(=O)c3cc([N+](=O)[O-])ccc3Cl)sc2c1` [Example 281, N-(6-Aminocarbonylaminobenzothiazol-2-yl)-(2-chloro-5-nitrophenyl)carboxamide] yielded an activity at 0.1 µM (Rat white adipocytes) of 200%.
